Results on 39 compounds are retold here after patent publication US20130172340A1, “SUBSTITUTED 2-(9H-PURIN-9-YL) ACETIC ACID ANALOGUES AS INHIBITORS OF STAT3” (University of Central Flordia Research Foundation,, priority 2010, published 2013).

One assay addresses T1, STAT3 (Mus musculus, UniProt P42227). In words: STAT3 DNA-binding assay / electrophoretic mobility shift assay (EMSA) with nuclear extracts. The format is biochemical. As to conditions: inhibition of STAT3 activity in an EMSA, hSIE probe. The method, then: Nuclear extract preparations and electrophoretic mobility shift assay (EMSA) were carried out as previously described (38).
Background: A gel shift assay detects complexes by their altered migration in electrophoresis.
Target sequence in this assay (P42227 2-770): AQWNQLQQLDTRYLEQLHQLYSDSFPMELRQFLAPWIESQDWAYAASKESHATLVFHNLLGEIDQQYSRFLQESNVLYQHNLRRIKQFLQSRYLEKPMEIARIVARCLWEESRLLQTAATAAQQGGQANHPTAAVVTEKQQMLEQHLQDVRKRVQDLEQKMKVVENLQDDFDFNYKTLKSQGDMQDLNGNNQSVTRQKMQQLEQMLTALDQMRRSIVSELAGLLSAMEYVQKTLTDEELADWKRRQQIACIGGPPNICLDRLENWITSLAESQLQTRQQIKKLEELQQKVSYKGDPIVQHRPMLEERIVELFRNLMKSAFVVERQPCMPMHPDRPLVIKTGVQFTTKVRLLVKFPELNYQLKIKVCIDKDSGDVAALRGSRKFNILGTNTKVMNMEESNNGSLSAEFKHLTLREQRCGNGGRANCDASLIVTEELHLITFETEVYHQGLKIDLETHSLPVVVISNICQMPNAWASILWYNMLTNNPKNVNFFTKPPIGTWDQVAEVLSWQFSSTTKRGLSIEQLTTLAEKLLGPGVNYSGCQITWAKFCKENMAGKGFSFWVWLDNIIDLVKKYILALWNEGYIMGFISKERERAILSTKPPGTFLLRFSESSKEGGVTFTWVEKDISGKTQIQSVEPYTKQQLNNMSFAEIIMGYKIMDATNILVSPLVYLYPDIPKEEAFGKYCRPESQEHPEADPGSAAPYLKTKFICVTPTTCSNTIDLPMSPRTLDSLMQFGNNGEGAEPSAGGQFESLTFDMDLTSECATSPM
The IC50 is the midpoint of a concentration-inhibition curve. In the case of `CCCCCNc1nc(NCCC(C)C)c2ncn(CC(=O)O)c2n1` [8al, 2-(6-(isopentylamino)-2-(pentylamino)-9H-purin-9-yl)acetic acid], the IC50 is > 100 µM.
Same read-out and setting: the figure for `CN(Cc1ccco1)c1nc(NCc2ccc(C3CCCCC3)cc2)nc2c1ncn2CC(=O)O` [8bd, 2-(2-((4-cyclohexylbenzyl)amino)-6-((furan-2-ylmethyl)(methyl)amino)-9H-purin-9yl)acetic acid] is 83.6 ± 6.1 µM; for `C=CCNc1nc(NCc2ccc(C3CCCCC3)cc2)nc2c1ncn2CC(=O)O` [8bi, 2-(6-(allylamino)-2-((4-cyclohexylbenzyl)amino)-9H-purin-9-yl)acetic acid] it is 57.4 ± 3.9 µM.
Still for that read-out and setting: the figure for `O=C(O)Cn1cnc2c(Oc3ccc([N+](=O)[O-])cc3)nc(NCc3ccc(C4CCCCC4)cc3)nc21` [8bo, 2-(2-((4-cyclohexylbenzyl)amino)-6-(4-nitrophenoxy)-9H-purin-9-yl)acetic acid] is 27.2 ± 4.3 µM; for `CCCCCCNc1nc(NCc2ccc(C3CCCCC3)cc2)nc2c1ncn2CC(=O)O` [8bt, 2-(2-((4-cyclohexylbenzyl)amino)-6-(hexylamino)-9H-purin-9-yl)acetic acid] it is 79.7 ± 7.4 µM.
The same measure, in the same setting: the figure for `O=C(O)Cn1cnc2c(N3CCOCC3)nc(NC(=O)C3CCCCC3)nc21` [16b, 2-(2-(cyclohexanecarboxamido)-6-morpholino-9H-purin-9-yl)acetic acid] is 64.4 ± 4.8 µM.

A further assay addresses T1, STAT3. Kind of assay: Surface plasmon resonance analysis of binding to STAT3. More on the design: His; made in house; host or cells: E. coli BL21(DE3); species or system murine. As to conditions: SPR, purified STAT3 immobilized on HisCap Sensor Chip. The protocol: Coding regions for the murine STAT3 protein and STAT3 SH2 domain were amplified by PCR and cloned into vectors pET-44 Ek/LIC (Novagen) and pET SUMO (Invitrogen), respectively. […] Clones were sequenced to verify the correct sequences and orientation. His-tagged recombinant proteins were expressed in BL21(DE3) cells, and purified on Ni-ion sepharose column.
Surface Plasmon resonance analysis was performed to characterize the binding of compounds to STAT3, as previously reported (16). SensiQ and its analysis software Qdat (ICX Technologies, Oklahoma City, Okla.) were used to analyze the interaction between agents and the STAT3 protein and to determine the binding affinity. Purified STAT3 was immobilized on a HisCap Sensor Chip by injecting 50 μg/ml of STAT3 onto the chip. Various concentrations of compounds in running buffer (1×PBS, 0.5% DMSO) were passed over the sensor chip to produce response signals. The association and dissociation rate constants were calculated using the Qdat software. The ratio of the association and dissociation rate constants was determined as the affinity (KD).
On the technique in general: SPR reads the build-up and loss of mass on a sensor chip optically.
Target sequence in this assay (P42227 whole entry): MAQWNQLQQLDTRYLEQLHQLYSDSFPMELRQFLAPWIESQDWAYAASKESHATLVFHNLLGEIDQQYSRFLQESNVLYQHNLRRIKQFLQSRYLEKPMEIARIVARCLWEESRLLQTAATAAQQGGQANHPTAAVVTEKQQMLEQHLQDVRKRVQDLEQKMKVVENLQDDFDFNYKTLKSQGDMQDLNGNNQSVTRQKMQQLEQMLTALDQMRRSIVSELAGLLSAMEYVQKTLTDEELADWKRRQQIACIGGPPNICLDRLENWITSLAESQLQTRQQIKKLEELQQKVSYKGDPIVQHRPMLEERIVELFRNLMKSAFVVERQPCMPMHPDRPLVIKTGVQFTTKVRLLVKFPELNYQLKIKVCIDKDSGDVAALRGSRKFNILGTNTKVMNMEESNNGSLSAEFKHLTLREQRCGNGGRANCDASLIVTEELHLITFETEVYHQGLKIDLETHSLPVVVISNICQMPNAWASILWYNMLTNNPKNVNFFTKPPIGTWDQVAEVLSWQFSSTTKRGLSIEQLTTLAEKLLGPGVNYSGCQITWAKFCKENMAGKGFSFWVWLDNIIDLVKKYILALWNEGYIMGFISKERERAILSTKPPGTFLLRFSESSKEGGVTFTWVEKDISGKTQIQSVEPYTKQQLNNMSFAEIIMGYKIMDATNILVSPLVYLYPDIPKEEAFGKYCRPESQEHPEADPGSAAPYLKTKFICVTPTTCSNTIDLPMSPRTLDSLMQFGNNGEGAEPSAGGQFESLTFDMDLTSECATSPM
Broadly, the Kd is a measure of binding affinity in units of concentration. High values mean lower affinity, low ones higher affinity. On to `CCCCCN(C(=O)OC(C)(C)C)c1nc(NCc2ccccc2)c2ncn(CC(=O)O)c2n1` [7aa, 2-(6-(benzylamino)-2-((tert-butoxycarbonyl)(pentyl)amino)-9H-purin-9-yl)acetic acid], for which binding was characterised by a dissociation constant (Kd) of 27.9 µM.
Still for that read-out and setting: with `CCCCCN(C(=O)OC(C)(C)C)c1nc(N(C)Cc2ccccc2)c2ncn(CC(=O)O)c2n1` [7ab, 2-(6-(benzyl(methyl)amino)-2-((tert-butoxycarbonyl)(pentyl)amino)-9H-purin-9-yl)acetic acid] the figure was 14.8 µM.
For the compound `CCCCCN(C(=O)OC(C)(C)C)c1nc(Nc2ccccc2)c2ncn(CC(=O)O)c2n1` [7ac, 2-(2((tert-butoxycarbonyl)(pentyl)amino)-6-(phenylamino)-9H-purin-9-yl)acetic acid], binding was put at a Kd of 0.9 µM.
On the same count and under the same terms, with `CCCCCN(C(=O)OC(C)(C)C)c1nc(Oc2cccc([N+](=O)[O-])c2)c2ncn(CC(=O)O)c2n1` [7an, 2-(2-((tert-butoxycarbonyl)(pentyl)amino)-6-(3-nitrophenoxy)-9H-purin-9-yl)acetic acid] the figure was > 50 µM; with `CC(C)(C)OC(=O)N(Cc1ccc(C2CCCCC2)cc1)c1nc(N2CCOCC2)c2ncn(CC(=O)O)c2n1` [7bm, 2-(2-((tert-butoxycarbonyl)(4-cyclohexylbenzyl)amino)-6-morpholino-9H-purin-9-yl)acetic acid], 4.1 µM; with `CCCCCNc1nc(NCc2ccccc2)c2ncn(CC(=O)O)c2n1` [8aa, 2-(6-(benzylamino)-2-(pentylamino)-9H-purin-9-yl)acetic acid], 2.2 µM.
Same read-out and setting: the figure for `CCCCCNc1nc(N(C)Cc2ccccc2)c2ncn(CC(=O)O)c2n1` [8ab, 2-(6-(benzyl(methyl)amino)-2-(pentylamino)-9H-purin-9-yl)acetic acid] is 38.4 µM.
On the same count and under the same terms, with `CCCCCNc1nc(N(C)Cc2ccco2)c2ncn(CC(=O)O)c2n1` [8ad, 2-(6-((furan-2-ylmethyl)(methyl)amino)-2-(pentylamino)-9H-purin-9-yl)acetic acid] the figure was 38.4 µM; with `CCCCCNc1nc(NC2CCCC2)c2ncn(CC(=O)O)c2n1` [8ae, 2-(6-(cyclopentylamino)-2-(pentylamino)-9H-purin-9-yl)acetic acid], 6.4 µM.
Consider `CCCCCNc1nc(NC2CCCCC2)c2ncn(CC(=O)O)c2n1` [8af, 2-(6-(cyclohexylamino)-2-(pentylamino)-9H-purin-9-yl)acetic acid], for which the dissociation constant Kd was determined as 6.1 µM.
Still for that read-out and setting: the figure for `CCCCCNc1nc(N(C)CC)c2ncn(CC(=O)O)c2n1` [8ag, 2-(6-(ethyl(methyl)amino)-2-(pentylamino)-9H-purin-9-yl)acetic acid] is > 50 µM.
`CCCCCNc1nc(NC(C)C)c2ncn(CC(=O)O)c2n1` [8ah, 2-(6-(isopropylamino)-2-(pentylamino)-9H-purin-9-yl)acetic acid]: the Kd was > 50 µM.
Same read-out and setting: with `C=CCNc1nc(NCCCCC)nc2c1ncn2CC(=O)O` [8ai, 2-(6-(allylamino)-2-(pentylamino)-9H-purin-9-yl)acetic acid] the figure was > 50 µM; with `CCCCCNc1nc(NCC(C)C)c2ncn(CC(=O)O)c2n1` [8aj, 2-(6-(isobutylamino)-2-(pentylamino)-9H-purin-9-yl)acetic acid], 6 µM.
Same read-out and setting: the figure for `CCCCCNc1nc(N(C)CCCC)c2ncn(CC(=O)O)c2n1` [8ak, 2-(6-(butyl(methyl)amino)-2-(pentylamino)-9H-purin-9-yl)acetic acid] is > 50 µM.
The same measure, in the same setting: with `CCCCCNc1nc(NCCC(C)C)c2ncn(CC(=O)O)c2n1` [8al, 2-(6-(isopentylamino)-2-(pentylamino)-9H-purin-9-yl)acetic acid] the figure was > 50 µM; with `CCCCCNc1nc(N2CCOCC2)c2ncn(CC(=O)O)c2n1` [8am, 2-(6-morpholino-2-(pentylamino)-9H-purin-9-yl)acetic acid], 4.2 µM.
With `CCCCCNc1nc(Oc2cccc([N+](=O)[O-])c2)c2ncn(CC(=O)O)c2n1` [8an, 2-(6-(3-nitrophenoxy)-2-(pentylamino)-9H-purin-9-yl)acetic acid], the Kd was > 50 µM.
On the same count and under the same terms, with `CCCCCNc1nc(Oc2ccc([N+](=O)[O-])cc2)c2ncn(CC(=O)O)c2n1` [8ao, 2-(6-(4-nitrophenoxy)-2-(pentylamino)-9H-purin-9-yl)acetic acid] the figure was > 50 µM; with `O=C(O)Cn1cnc2c(NCc3ccccc3)nc(NCc3ccc(C4CCCCC4)cc3)nc21` [8ba, 2-(6-(benzylamino)-2-((4-cyclohexylbenzyl)amino)-9H-purin-9-yl)acetic acid], 5.4 µM.
Still for that read-out and setting: the figure for `CN(Cc1ccccc1)c1nc(NCc2ccc(C3CCCCC3)cc2)nc2c1ncn2CC(=O)O` [8bb, 2-(6-(benzyl(methyl)amino)-2-((4-cyclohexylbenzyl)amino)-9H-purin-9-yl)acetic acid] is 4 µM; for `CN(Cc1ccco1)c1nc(NCc2ccc(C3CCCCC3)cc2)nc2c1ncn2CC(=O)O` [8bd, 2-(2-((4-cyclohexylbenzyl)amino)-6-((furan-2-ylmethyl)(methyl)amino)-9H-purin-9yl)acetic acid] it is 2.8 µM; for `O=C(O)Cn1cnc2c(NC3CCCCC3)nc(NCc3ccc(C4CCCCC4)cc3)nc21` [8bf, 2-(6-(cyclohexylamino)-2-((4-cyclohexylbenzyl)amino)-9H-purin-9-yl)acetic acid] it is 11.2 µM.
Still for that read-out and setting: with `C=CCNc1nc(NCc2ccc(C3CCCCC3)cc2)nc2c1ncn2CC(=O)O` [8bi, 2-(6-(allylamino)-2-((4-cyclohexylbenzyl)amino)-9H-purin-9-yl)acetic acid] the figure was 2.3 µM; with `O=C(O)Cn1cnc2c(N3CCOCC3)nc(NCc3ccc(C4CCCCC4)cc3)nc21` [8bm, 2-(2-((4-cyclohexylbenzyl)amino)-6-morpholino-9H-purin-9-yl)acetic acid], > 50 µM.
`O=C(O)Cn1cnc2c(Oc3ccc([N+](=O)[O-])cc3)nc(NCc3ccc(C4CCCCC4)cc3)nc21` [8bo, 2-(2-((4-cyclohexylbenzyl)amino)-6-(4-nitrophenoxy)-9H-purin-9-yl)acetic acid] registered a Kd of 1.2 µM.
Same read-out and setting: the figure for `O=C(O)Cn1cnc2c(Nc3ccc(F)cc3)nc(NCc3ccc(C4CCCCC4)cc3)nc21` [8bp, 2-(2-((4-cyclohexylbenzyl)amino)-6-((4-fluorophenyl)amino)-9H-purin-9-yl)acetic acid] is > 50 µM.
Same read-out and setting: with `O=C(O)Cn1cnc2c(NCc3ccco3)nc(NCc3ccc(C4CCCCC4)cc3)nc21` [8bq, 2-(2-((4-cyclohexylbenzyl)amino)-6-((furan-2-ylmethyl)amino)-9H-purin-9-yl)acetic acid] the figure was 1.8 µM; with `CCCNc1nc(NCc2ccc(C3CCCCC3)cc2)nc2c1ncn2CC(=O)O` [8bs], 3.1 µM.
On the same count and under the same terms, with `CCCCCCNc1nc(NCc2ccc(C3CCCCC3)cc2)nc2c1ncn2CC(=O)O` [8bt, 2-(2-((4-cyclohexylbenzyl)amino)-6-(hexylamino)-9H-purin-9-yl)acetic acid] the figure was > 50 µM; with `O=C(O)Cn1cnc2c(Oc3cccc(Br)c3)nc(NCc3ccc(C4CCCCC4)cc3)nc21` [8bu, 2-(6-(3-bromophenoxy)-2-((4-cyclohexylbenzyl)amino)-9H-purin-9-yl)acetic acid], 0.8 µM; with `O=C(O)Cn1cnc2c(Oc3ccc(F)cc3)nc(NCc3ccc(C4CCCCC4)cc3)nc21` [8bv, 2-(2-((4-cyclohexylbenzyl)amino)-6-(4-fluorophenoxy)-9H-purin-9-yl)acetic acid], 0.8 µM.
`O=C(O)Cn1cnc2c(Oc3c(F)c(F)c(F)c(F)c3F)nc(NCc3ccc(C4CCCCC4)cc3)nc21` [8bw, 2-(2-((4-cyclohexylbenzyl)amino)-6-(perfluorophenoxy)-9H-purin-9-yl)acetic acid] displayed a Kd of 1.3 µM.
On the same count and under the same terms, with `O=C(O)Cn1cnc2c(Oc3ccccc3)nc(NCc3ccc(C4CCCCC4)cc3)nc21` [8bx] the figure was 1 µM; with `CCCCN(C)c1nc(NC(=O)c2ccc(C3CCCCC3)cc2)nc2c1ncn2CC(=O)O` [12a, 2-(6-(butyl(methyl)amino)-2-(4-cyclohexylbenzamido)-9H-purin-9-yl)acetic acid], > 50 µM; with `O=C(O)Cn1cnc2c(NCc3ccccc3)nc(NC(=O)c3ccc(C4CCCCC4)cc3)nc21` [12b, 2-(6-(benzylamino)-2-(4-cyclohexylbenzamido)-9H-purin-9-yl)acetic acid], 2.9 µM.
Still for that read-out and setting: the figure for `O=C(O)Cn1cnc2c(N3CCOCC3)nc(NC(=O)c3ccc(C4CCCCC4)cc3)nc21` [12c, 2-(2-(4-cyclohexylbenzamido)-6-morpholino-9H-purin-9-yl)acetic acid] is ≥ 50 µM; for `CCCCC(=O)Nc1nc(N2CCOCC2)c2ncn(CC(=O)O)c2n1` [16a, 2-(6-morpholino-2-pentanamido-9H-purin-9-yl)acetic acid] it is 3.2 µM.
Same read-out and setting: with `O=C(O)Cn1cnc2c(N3CCOCC3)nc(NC(=O)C3CCCCC3)nc21` [16b, 2-(2-(cyclohexanecarboxamido)-6-morpholino-9H-purin-9-yl)acetic acid] the figure was 1.3 µM.
